According to patent US12599672B2, “KRAS proteolysis targeting chimeras” (PAQ Therapeutics Inc., priority 2023, dated 2026):

Biological target: T1, KRAS G12D (Homo sapiens, UniProt P01116, G12D)
T1 construct: AsPc-1-KRAS (G12D)-HiBit-KI cell (Pharmaron); host or cells: AsPc-1-KRAS (G12D)-HiBit-KI cells (HiBiT knock-in at the endogenous KRAS locus)
Experiment: KRAS G12D HiBit assay
Assay type: cell-based
Conditions: AsPc-1-KRAS (G12D)-HiBit-KI cell, compound treatment for 24 hours, absolute DC50; class symbols
Description: Day 1. […] Allowed cells to reach approximately 80% confluence before splitting. Rinsed cultivated cells in T-75 flasks with 5 mL PBS (Solarbio, P1020-500). […] Inactivated trypsin by adding excessive serum containing medium. Harvested the cells from flask into cell culture medium and counted the cell number.
Day 2. Test compounds were dissolved at 0.3 mM in DMSO (Solarbio, D8371) as stock solution. […] Performed 3-fold, 10-points dilution via transferring 15 μL compound into 30 μL DMSO by using TECAN liquid handler (TECAN, Freedom EVO200).
Day 3. After compound treatment for 24 hours, removed the plate from incubators and equilibrated at room temperature for 15 minutes. Prepared the HiBit reagent (Promega, N3040) by mixing 10 mL of Nano-Glo®-HiBiT Lytic Buffer with 200 μL of Nano-Glo®-HiBiT Lytic Substrate and 100 μL of LgBiT Protein. Added 20 μL of HiBit reagent into each well of the cell plate and spun the plates at room temperature at 1,000 RPM for 1 minute.
The inhibition activity was calculated using the following formula:
[formula] where HC (high control) is obtained from cells treated with 0.1% DMSO only.

T1 sequence (P01116 1-188 isoform P01116-2 G12D): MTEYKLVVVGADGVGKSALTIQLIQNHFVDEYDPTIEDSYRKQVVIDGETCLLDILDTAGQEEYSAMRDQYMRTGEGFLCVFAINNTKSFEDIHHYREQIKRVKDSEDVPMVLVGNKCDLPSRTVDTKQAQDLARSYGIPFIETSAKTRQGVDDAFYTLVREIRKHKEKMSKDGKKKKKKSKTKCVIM

| DC50 [nM] | Compound |
| --- | --- |
| > 300 | C#Cc1c(F)ccc2cccc(-c3ncc4c(N5CCC[C@@](C)(O)C5)nc(OCC5(CN6CCC(CN7CCN(c8ccc9c(c8)n(C)c(=O)n9C8CCC(=O)NC8=O)CC7)CC6)CC5)nc4c3F)c12 (stereo partly drawn) [Compound 26] |
| > 300 | C#Cc1c(F)ccc2cccc(-c3ncc4c(N5CCC[C@@](C)(O)C5)nc(OCC5(CN6CCC(N7CCN(c8ccc9c(c8)n(C)c(=O)n9C8CCC(=O)NC8=O)CC7)CC6)CC5)nc4c3F)c12 (stereo partly drawn) [Compound 29] |
| > 300 | C#Cc1c(F)ccc2cccc(-c3ncc4c(N5CCC[C@@](C)(O)C5)nc(OCC5(CN6CCN(Cc7ccc8c(c7)n(C)c(=O)n8C7CCC(=O)NC7=O)CC6)CC5)nc4c3F)c12 (stereo partly drawn) [Compound 37] |
| > 300 | C#Cc1c(F)ccc2cccc(-c3ncc4c(N5CCC[C@@](C)(O)C5)nc(OCC5(CN6CCC(N7CCC(c8ccc9c(c8)n(C)c(=O)n9C8CCC(=O)NC8=O)CC7)CC6)CC5)nc4c3F)c12 (stereo partly drawn) [Compound 39] |
| > 300 | C#Cc1c(F)ccc2cccc(-c3ncc4c(N5CCC[C@@](C)(O)C5)nc(OCC5(CN6CCC(CN7CCC(c8ccc9c(c8)n(C)c(=O)n9C8CCC(=O)NC8=O)CC7)CC6)CC5)nc4c3F)c12 (stereo partly drawn) [Compound 48] |
| > 300 | C#Cc1c(F)ccc2cccc(-c3ncc4c(N5CCC[C@@](C)(O)C5)nc(OC[C@@]56CCCN5[C@H](COC(=O)NCCOCCOc5ccc7c(c5)n(C)c(=O)n7C5CCC(=O)NC5=O)CC6)nc4c3F)c12 (stereo partly drawn) [Compound 107] |
| > 300 | C#Cc1c(F)ccc2cccc(-c3ncc4c(N5CCC[C@@](C)(O)C5)nc(OC[C@@]56CCCN5[C@H](COC(=O)NCCOCCOCCOc5ccc7c(c5)n(C)c(=O)n7C5CCC(=O)NC5=O)CC6)nc4c3F)c12 (stereo partly drawn) [Compound 108, ((3S,7aS)-7a-(((7-(8-ethynyl-7-fluoronaphthalen-1-yl)-8-fluoro-4-((R)-3-hydroxy-3-methylpiperidin-1-yl)pyrido[4,3-d]pyrimidin-2-yl)oxy)methyl)hexahydro-1H-pyrrolizin-3-yl)methyl (2-(2-(2-((1-(2,6-dioxopiperidin-3-yl)-3-methyl-2-oxo-2,3-dihydro-1H-benzo[d]imidazol-5-yl)oxy)ethoxy)ethoxy)ethyl) carbamate] |
| > 300 | C#Cc1c(F)ccc2cccc(-c3ncc4c(N5CCC[C@@](C)(O)C5)nc(OC[C@@]56CCCN5[C@H](COC(=O)NCCOCCOCCOCCOc5ccc7c(c5)n(C)c(=O)n7C5CCC(=O)NC5=O)CC6)nc4c3F)c12 (stereo partly drawn) [Compound 109, ((3S,7aS)-7a-(((7-(8-ethynyl-7-fluoronaphthalen-1-yl)-8-fluoro-4-((R)-3-hydroxy-3-methylpiperidin-1-yl)pyrido[4,3-d]pyrimidin-2-yl)oxy)methyl)hexahydro-1H-pyrrolizin-3-yl)methyl (2-(2-(2-(2-((1-(2,6-dioxopiperidin-3-yl)-3-methyl-2-oxo-2,3-dihydro-1H-benzo[d]imidazol-5-yl)oxy)ethoxy)ethoxy)ethoxy)ethyl) carbamate] |

More lines, now with the values behind:

| Compound | DC50 [nM] |
| --- | --- |
| C#Cc1c(F)ccc2cccc(-c3ncc4c(N5CCC[C@@](C)(O)C5)nc(OCC5(CN6CCN(CC7CCN(c8ccc9c(c8)n(C)c(=O)n9C8CCC(=O)NC8=O)CC7)CC6)CC5)nc4c3F)c12 (stereo partly drawn) [Compound 24] | > 300 |
| C#Cc1c(F)ccc2cccc(-c3ncc4c(N5CCC[C@@](C)(O)C5)nc(OCC5(CN6CCN(CCN7CCN(c8ccc9c(c8)n(C)c(=O)n9C8CCC(=O)NC8=O)CC7)CC6)CC5)nc4c3F)c12 (stereo partly drawn) [Compound 27] | > 300 |
| C#Cc1c(F)ccc2cc(O)cc(-c3ncc4c(N5CCC[C@@](C)(O)C5)nc(OCC5(CN6CCC(N7CCN(c8ccc9c(c8)n(C)c(=O)n9C8CCC(=O)NC8=O)CC7)CC6)CC5)nc4c3F)c12 (stereo partly drawn) [Compound 30] | < 100 |
| C#Cc1c(F)ccc2cccc(-c3ncc4c(N5CCC[C@@](C)(O)C5)nc(OCC5(CN6CCC7(CC6)CC(N6CCC(c8ccc9c(C%10CCC(=O)NC%10=O)nn(C)c9c8)CC6)C7)CC5)nc4c3F)c12 (stereo partly drawn) [Compound 35] | > 300 |
| C#Cc1c(F)ccc2cccc(-c3ncc4c(N5CCC[C@@](C)(O)C5)nc(OCC5(CN6CCC7(CC6)CC(N6CCC(c8ccc9c(c8)n(C)c(=O)n9C8CCC(=O)NC8=O)CC6)C7)CC5)nc4c3F)c12 (stereo partly drawn) [Compound 36] | > 300 |
| C#Cc1c(F)ccc2cccc(-c3ncc4c(N5CCC[C@@](C)(O)C5)nc(OCC5(CN6CCC7(CC6)CC(N6CCN(c8ccc9c(c8)n(C)c(=O)n9C8CCC(=O)NC8=O)CC6)C7)CC5)nc4c3F)c12 (stereo partly drawn) [Compound 41] | > 300 |
| C#Cc1c(F)ccc2cc(O)cc(-c3ncc4c(N5CCC[C@@](C)(O)C5)nc(OCC5(CN6CCN(C7CCN(c8ccc9c(c8)n(C)c(=O)n9C8CCC(=O)NC8=O)CC7)CC6)CC5)nc4c3F)c12 (stereo partly drawn) [Compound 45] | < 100 |
| C#Cc1c(F)ccc2cc(O)cc(-c3ncc4c(N5CCC[C@@](C)(O)C5)nc(OCC5(CN6CCC(CN7CCN(c8ccc9c(c8)C(=O)N(C8CCC(=O)NC8=O)C9=O)CC7)CC6)CC5)nc4c3F)c12 (stereo partly drawn) [Compound 46] | < 100 |
| C#Cc1c(F)ccc2cc(O)cc(-c3ncc4c(N5CCC[C@@](C)(O)C5)nc(OCC5(CN6CCC7(CC6)CC(N6CCC(c8ccc9c(c8)n(C)c(=O)n9C8CCC(=O)NC8=O)CC6)C7)CC5)nc4c3F)c12 (stereo partly drawn) [Compound 54] | < 100 |
| C#Cc1c(F)ccc2cc(O)cc(-c3ncc4c(N5CCC[C@@](C)(O)C5)nc(OCC5(CN6CCC(N7CCC(c8ccc9c(c8)n(C)c(=O)n9C8CCC(=O)NC8=O)CC7)CC6)CC5)nc4c3F)c12 (stereo partly drawn) [Compound 59] | < 100 |
| C#Cc1c(F)ccc2cccc(-c3ncc4c(N5CCC[C@@](C)(O)C5)nc(OCC5(CN6CCN(Cc7cccc8c7n(C)c(=O)n8C7CCC(=O)NC7=O)CC6)CC5)nc4c3F)c12 (stereo partly drawn) [Compound 61] | > 300 |
| C#Cc1c(F)ccc2cccc(-c3ncc4c(N5CCC[C@@](C)(O)C5)nc(OCC5(CN6CCC7(CCC(c8cccc9c8n(C)c(=O)n9C8CCC(=O)NC8=O)CC7)CC6)CC5)nc4c3F)c12 (stereo partly drawn) [Compound 66] | > 300 |
| C#Cc1c(F)ccc2cc(O)cc(-c3ncc4c(N5CCC[C@@](C)(O)C5)nc(OCC5(CN6CCC(N7CCC(c8cccc9c8n(C)c(=O)n9C8CCC(=O)NC8=O)CC7)CC6)CC5)nc4c3F)c12 (stereo partly drawn) [Compound 85] | < 100 |

Same assay, conditions: AsPc-1-KRAS (G12D)-HiBit-KI cell, compound treatment for 24 hours, absolute DC50; numeric bounds given in place of class symbols

| DC50 [nM] | Compound |
| --- | --- |
| > 100 | C#Cc1c(F)ccc2cccc(-c3ncc4c(N5CCC[C@@](C)(O)C5)nc(OCC5(CN6CCC7(CC6)CCN(c6ccc8c(c6)n(C)c(=O)n8C6CCC(=O)NC6=O)CC7)CC5)nc4c3F)c12 (stereo partly drawn) [Compound 38] |
| > 100 | C#Cc1c(F)ccc2cccc(-c3ncc4c(N5CCC[C@@](C)(O)C5)nc(OCC5(CN6CCC7(CC6)CC(N6CCC(c8cccc9c8n(C)c(=O)n9C8CCC(=O)NC8=O)CC6)C7)CC5)nc4c3F)c12 (stereo partly drawn) [Compound 44] |
| > 100 | C#Cc1c(F)ccc2cccc(-c3ncc4c(N5CCC[C@@](C)(O)C5)nc(OC5CCN(CC(=O)N6CCC7(CC6)CC(N6CCC(c8ccc9c(c8)n(C)c(=O)n9C8CCC(=O)NC8=O)CC6)C7)CC5)nc4c3F)c12 (stereo partly drawn) [Compound 87] |

Same assay, conditions: AsPc-1-KRAS (G12D)-HiBit-KI cell, compound treatment for 24 hours; class symbols

| Dmax [%] | Compound |
| --- | --- |
| 15 to 50 | C#Cc1c(F)ccc2cccc(-c3ncc4c(N5CCC[C@@](C)(O)C5)nc(OC[C@@]56CCCN5[C@H](COC(=O)NCCOCCOc5ccc7c(c5)n(C)c(=O)n7C5CCC(=O)NC5=O)CC6)nc4c3F)c12 (stereo partly drawn) [Compound 107] |
| 15 to 50 | C#Cc1c(F)ccc2cccc(-c3ncc4c(N5CCC[C@@](C)(O)C5)nc(OC[C@@]56CCCN5[C@H](COC(=O)NCCOCCOCCOc5ccc7c(c5)n(C)c(=O)n7C5CCC(=O)NC5=O)CC6)nc4c3F)c12 (stereo partly drawn) [Compound 108, ((3S,7aS)-7a-(((7-(8-ethynyl-7-fluoronaphthalen-1-yl)-8-fluoro-4-((R)-3-hydroxy-3-methylpiperidin-1-yl)pyrido[4,3-d]pyrimidin-2-yl)oxy)methyl)hexahydro-1H-pyrrolizin-3-yl)methyl (2-(2-(2-((1-(2,6-dioxopiperidin-3-yl)-3-methyl-2-oxo-2,3-dihydro-1H-benzo[d]imidazol-5-yl)oxy)ethoxy)ethoxy)ethyl) carbamate] |
| 15 to 50 | C#Cc1c(F)ccc2cccc(-c3ncc4c(N5CCC[C@@](C)(O)C5)nc(OC[C@@]56CCCN5[C@H](COC(=O)NCCOCCOCCOCCOc5ccc7c(c5)n(C)c(=O)n7C5CCC(=O)NC5=O)CC6)nc4c3F)c12 (stereo partly drawn) [Compound 109, ((3S,7aS)-7a-(((7-(8-ethynyl-7-fluoronaphthalen-1-yl)-8-fluoro-4-((R)-3-hydroxy-3-methylpiperidin-1-yl)pyrido[4,3-d]pyrimidin-2-yl)oxy)methyl)hexahydro-1H-pyrrolizin-3-yl)methyl (2-(2-(2-(2-((1-(2,6-dioxopiperidin-3-yl)-3-methyl-2-oxo-2,3-dihydro-1H-benzo[d]imidazol-5-yl)oxy)ethoxy)ethoxy)ethoxy)ethyl) carbamate] |
